Some results are limits rather than exact numbers.

For this assay, the target named is Insulin-like growth factor 1 receptor (Homo sapiens, UniProt P08069). The experiment in a line: Inhibition of IGF-induced autophosphosphorylation of GST-tagged human IGF1R expressed in SF21 cells by time resolved-fluorescent assay.
Insulin-like growth factor 1 receptor, sequence (P08069 31-736 limits assumed): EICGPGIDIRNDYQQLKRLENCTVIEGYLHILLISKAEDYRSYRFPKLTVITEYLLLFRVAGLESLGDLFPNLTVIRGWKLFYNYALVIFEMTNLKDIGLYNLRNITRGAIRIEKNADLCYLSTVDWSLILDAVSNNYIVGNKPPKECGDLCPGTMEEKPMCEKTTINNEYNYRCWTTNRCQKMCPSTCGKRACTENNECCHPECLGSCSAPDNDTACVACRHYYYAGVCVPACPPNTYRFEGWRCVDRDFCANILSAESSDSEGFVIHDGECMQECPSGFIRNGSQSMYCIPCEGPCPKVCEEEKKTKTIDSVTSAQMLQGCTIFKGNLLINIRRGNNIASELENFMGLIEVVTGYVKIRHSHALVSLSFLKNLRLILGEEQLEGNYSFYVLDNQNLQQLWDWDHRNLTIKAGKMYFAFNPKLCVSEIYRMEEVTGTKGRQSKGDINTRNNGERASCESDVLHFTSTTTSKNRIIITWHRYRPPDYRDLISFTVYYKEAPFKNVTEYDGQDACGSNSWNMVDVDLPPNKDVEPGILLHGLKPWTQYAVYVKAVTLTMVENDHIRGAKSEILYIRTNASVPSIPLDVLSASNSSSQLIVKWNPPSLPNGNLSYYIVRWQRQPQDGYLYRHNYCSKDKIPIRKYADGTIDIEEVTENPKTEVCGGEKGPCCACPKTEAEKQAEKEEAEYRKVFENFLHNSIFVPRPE
Insulin-like growth factor 1 receptor, sequence (P08069 741-1367 limits assumed): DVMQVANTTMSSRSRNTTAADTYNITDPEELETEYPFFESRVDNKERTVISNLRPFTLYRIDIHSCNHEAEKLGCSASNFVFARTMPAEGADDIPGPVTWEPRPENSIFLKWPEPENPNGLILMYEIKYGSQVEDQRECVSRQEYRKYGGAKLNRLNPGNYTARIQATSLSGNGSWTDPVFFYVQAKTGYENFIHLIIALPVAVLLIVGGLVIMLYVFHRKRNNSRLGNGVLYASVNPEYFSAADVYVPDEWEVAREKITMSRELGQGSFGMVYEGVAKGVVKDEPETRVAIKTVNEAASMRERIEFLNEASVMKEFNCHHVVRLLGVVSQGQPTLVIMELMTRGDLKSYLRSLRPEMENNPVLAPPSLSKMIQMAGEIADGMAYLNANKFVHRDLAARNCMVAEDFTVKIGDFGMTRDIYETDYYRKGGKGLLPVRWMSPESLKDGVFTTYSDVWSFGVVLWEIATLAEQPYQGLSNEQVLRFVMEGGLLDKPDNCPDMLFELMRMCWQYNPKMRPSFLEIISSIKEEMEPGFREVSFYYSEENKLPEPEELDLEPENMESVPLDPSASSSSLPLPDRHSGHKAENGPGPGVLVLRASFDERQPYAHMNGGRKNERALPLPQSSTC
`Cc1c(O)n(-c2ccc(S(=O)(=O)C(F)(F)F)cc2)c(=O)n1Cc1cnc[nH]1` [(S)-1-((1H-imidazol-4-yl)methyl)-5-methyl-3-(4-(trifluoromethylsulfonyl)phenyl)imidazolidine-2,4-dione] returned an IC50 above 100 µM. On to `Cc1c(O)n(-c2ccc(S(=O)(=O)C(F)(F)F)cc2)c(=O)n1Cc1cncc2ccccc12` [(S)-1-(isoquinolin-4-ylmethyl)-5-methyl-3-(4-(trifluoromethylsulfonyl)phenyl)imidazolidine-2,4-dione], for which the IC50 is above 100 µM.

Turning to `Cc1c(O)n(-c2ccc(S(=O)(=O)C(F)(F)F)cc2)c(=O)n1Cc1ccccc1` [(S)-1-benzyl-5-methyl-3-(4-(trifluoromethylsulfonyl)phenyl)imidazolidine-2,4-dione], the IC50 is above 100 µM.

Consider `Cc1c(O)n(-c2ccc(S(=O)(=O)C(F)(F)F)cc2)c(=O)n1Cc1cc[n+]([O-])cc1` [(S)-4-((5-methyl-2,4-dioxo-3-(4-(trifluoromethylsulfonyl)phenyl)imidazolidin-1-yl)methyl)pyridine 1-oxide], for which the half-maximal inhibitory concentration (IC50) was above 100 µM. `Cc1c(O)n(-c2ccc(S(=O)(=O)C(F)(F)F)cc2)c(=O)n1Cc1cc[n+]([O-])c2ccccc12` [(S)-4-((5-methyl-2,4-dioxo-3-(4-(trifluoromethylsulfonyl)phenyl)imidazolidin-1-yl)methyl)quinoline 1-oxide] showed a 50% inhibitory concentration (IC50) above 100 µM. The result for `Cc1c(O)n(-c2ccc(S(=O)(=O)C(F)(F)F)cc2)c(=O)n1CC1CCNCC1` [(S)-5-methyl-1-(piperidin-4-ylmethyl)-3-(4-(trifluoromethylsulfonyl)phenyl)imidazolidine-2,4-dione] reads above 100 µM; that for `Cc1c(O)n(-c2ccc(S(=O)(=O)C(F)(F)F)cc2)c(=O)n1Cc1ccccn1` [(S)-5-methyl-1-(pyridin-2-ylmethyl)-3-(4-(trifluoromethylsulfonyl)phenyl)imidazolidine-2,4-dione], above 100 µM.

Regarding `Cc1c(O)n(-c2ccc(S(C)(=O)=O)cc2)c(=O)n1Cc1ccnc2ccccc12` [(S)-5-methyl-3-(4-(methylsulfonyl)phenyl)-1-(quinolin-4-ylmethyl)imidazolidine-2,4-dione], the IC50 is above 100 µM.

Usually IC50 stands for the concentration at which inhibition is half-maximal. A higher IC50 goes with lower potency.

The values are drawn from BindingDB's records for doi:10.1016/j.bmcl.2011.03.003 (Sanofi-Aventis, 2011).
